The results in this text go back to ChEMBL document CHEMBL1151793, “Synthesis, biological active molecular design, and molecular docking study of novel deazaflavin-cholestane hybrid compounds” (Bioorg Med Chem, 2008).

Assay [1] concerns KB. In words: Antitumor activity against human KB cells by MTT assay. It counts as functional, cell-based. In general terms: Tetrazolium assays rely on reduction of a dye to a coloured formazan, in cell work by metabolically active cells.
In assay [2] the test system is CCRF-HSB-2. In words: Antitumor activity against human CCRF-HSB2 cells by MTT assay. The assay is classed as functional, cell-based.

Values after ≈ are worked out from the molar mass of the structure shown.

Broadly, the IC50 is the point on the concentration scale where inhibition reaches its midpoint. As to `CCCCCCCC[C@H]1CC[C@H]2[C@@H]3CCC4=Cc5c(cc6c(=O)[nH]c(=O)nc-6n5-c5ccccc5)C[C@]4(C)[C@H]3CC[C@]12C`, the IC50 in assay [1] was determined as 7.9 µg/mL (≈ 13.6 µM); in assay [2], 5.4 µg/mL (≈ 9.31 µM).

`CCCCCCCC[C@H]1CC[C@H]2[C@@H]3CCC4=Cc5c(cc6c(=O)n(-c7ccccc7)c(=O)nc-6n5-c5ccc(C)c(C)c5)C[C@]4(C)[C@H]3CC[C@]12C`: the 50% inhibitory concentration (IC50) in assay [1] was determined as 9.1 µg/mL (≈ 13.3 µM); in assay [2] it was 7.7 µg/mL (≈ 11.3 µM).

Take `CCCCCCCC[C@H]1CC[C@H]2[C@@H]3CCC4=Cc5c(cc6c(=O)[nH]c(=O)nc-6n5CC)C[C@]4(C)[C@H]3CC[C@]12C`: the IC50 in assay [1] was 40.3 µg/mL (≈ 75.8 µM); in assay [2] it was 37.9 µg/mL (≈ 71.3 µM).

For `CCCCCCCC[C@H]1CC[C@H]2[C@@H]3CCC4=Cc5c(cc6c(=O)[nH]c(=O)nc-6n5-c5ccc(F)cc5)C[C@]4(C)[C@H]3CC[C@]12C`, the IC50 in assay [1] is 2.1 µg/mL (≈ 3.51 µM); in assay [2], 2.7 µg/mL (≈ 4.52 µM).

Take `CCCCCCCC[C@H]1CC[C@H]2[C@@H]3CCC4=Cc5c(cc6c(=O)n(-c7ccccc7)c(=O)nc-6n5-c5ccc(OC)cc5)C[C@]4(C)[C@H]3CC[C@]12C`: the 50% inhibitory concentration (IC50) in assay [1] came to 8.7 µg/mL (≈ 12.7 µM); in assay [2] it was 7.5 µg/mL (≈ 10.9 µM).

As to `CCCCCCCC[C@H]1CC[C@H]2[C@@H]3CCC4=Cc5c(cc6c(=O)n(-c7ccccc7)c(=O)nc-6n5C)C[C@]4(C)[C@H]3CC[C@]12C`, the concentration for half-maximal inhibition (IC50) was 7.4 µg/mL (≈ 12.5 µM) in assay [1] and 5.5 µg/mL (≈ 9.26 µM) in assay [2].

`CCCCCCCC[C@H]1CC[C@H]2[C@@H]3CCC4=Cc5c(cc6c(=O)[nH]c(=O)nc-6n5-c5cccc(C)c5)C[C@]4(C)[C@H]3CC[C@]12C`: the half-inhibitory concentration (IC50) in assay [1] was 4.4 µg/mL (≈ 7.41 µM); in assay [2], 2.7 µg/mL (≈ 4.55 µM).

With `CCCCCCCC[C@H]1CC[C@H]2[C@@H]3CCC4=Cc5c(cc6c(=O)[nH]c(=O)nc-6n5-c5ccc(C)c(C)c5)C[C@]4(C)[C@H]3CC[C@]12C`, the IC50 worked out at 7.8 µg/mL (≈ 12.8 µM) in assay [1] and 4.7 µg/mL (≈ 7.73 µM) in assay [2].

As to `CCCCCCCC[C@H]1CC[C@H]2[C@@H]3CCC4=Cc5c(cc6c(=O)n(C)c(=O)nc-6n5-c5ccc(OC)cc5)C[C@]4(C)[C@H]3CC[C@]12C`, the IC50 in assay [1] worked out at 7.4 µg/mL (≈ 11.9 µM); in assay [2], 4.5 µg/mL (≈ 7.21 µM).

As for `CCCCCCCC[C@H]1CC[C@H]2[C@@H]3CCC4=Cc5c(cc6c(=O)[nH]c(=O)nc-6n5C)C[C@]4(C)[C@H]3CC[C@]12C`, the concentration for half-maximal inhibition (IC50) in assay [1] worked out at 8.4 µg/mL (≈ 16.2 µM); in assay [2], 8.8 µg/mL (≈ 17 µM).

With `Nc1ccn([C@@H]2O[C@H](CO)[C@@H](O)[C@@H]2O)c(=O)n1` [CYTARABINE], the half-inhibitory concentration (IC50) in assay [1] amounted to 0.73 µg/mL (≈ 3 µM).

With `CCCCCCCC[C@H]1CC[C@H]2[C@@H]3CCC4=Cc5c(cc6c(=O)n(C)c(=O)nc-6n5CCCC)C[C@]4(C)[C@H]3CC[C@]12C`, the half-inhibitory concentration (IC50) was found to be 7.5 µg/mL (≈ 13.1 µM) in assay [1] and 10 µg/mL (≈ 17.4 µM) in assay [2].

Consider `CCCCCCCC[C@H]1CC[C@H]2[C@@H]3CCC4=Cc5c(cc6c(=O)n(C)c(=O)nc-6n5-c5ccc(Cl)cc5)C[C@]4(C)[C@H]3CC[C@]12C`, for which the half-inhibitory concentration (IC50) is 9.2 µg/mL (≈ 14.6 µM) in assay [1] and 7.6 µg/mL (≈ 12.1 µM) in assay [2].

Consider `CCCCCCCC[C@H]1CC[C@H]2[C@@H]3CCC4=Cc5c(cc6c(=O)n(-c7ccccc7)c(=O)nc-6n5-c5ccccc5)C[C@]4(C)[C@H]3CC[C@]12C`, for which the IC50 in assay [1] worked out at 1.9 µg/mL (≈ 2.9 µM); in assay [2] it was 2.4 µg/mL (≈ 3.66 µM).

For the compound `CCCCCCCC[C@H]1CC[C@H]2[C@@H]3CCC4=Cc5c(cc6c(=O)n(C)c(=O)nc-6n5-c5ccc(Br)cc5)C[C@]4(C)[C@H]3CC[C@]12C`, the IC50 in assay [1] amounted to 14.2 µg/mL (≈ 21.1 µM); in assay [2], 14 µg/mL (≈ 20.8 µM).

With `CCCCCCCC[C@H]1CC[C@H]2[C@@H]3CCC4=Cc5c(cc6c(=O)n(C)c(=O)nc-6n5-c5ccc(C)c(C)c5)C[C@]4(C)[C@H]3CC[C@]12C`, the IC50 worked out at 8.3 µg/mL (≈ 13.3 µM) in assay [1] and 5.6 µg/mL (≈ 9 µM) in assay [2].

Consider `CCCCCCCC[C@H]1CC[C@H]2[C@@H]3CCC4=Cc5c(cc6c(=O)n(C)c(=O)nc-6n5-c5cccc(C)c5)C[C@]4(C)[C@H]3CC[C@]12C`, for which the concentration for half-maximal inhibition (IC50) in assay [1] was 7.4 µg/mL (≈ 12.2 µM); in assay [2] it was 5.4 µg/mL (≈ 8.88 µM).

On to `CCCCCCCC[C@H]1CC[C@H]2[C@@H]3CCC4=Cc5c(cc6c(=O)n(C)c(=O)nc-6n5-c5ccccc5)C[C@]4(C)[C@H]3CC[C@]12C`, for which the IC50 in assay [1] was 7.6 µg/mL (≈ 12.8 µM); in assay [2], 6.2 µg/mL (≈ 10.4 µM).

`CCCCCCCC[C@H]1CC[C@H]2[C@@H]3CCC4=Cc5c(cc6c(=O)n(C)c(=O)nc-6n5-c5ccc(F)cc5)C[C@]4(C)[C@H]3CC[C@]12C`: the figures for the IC50 in assay [1] and in assay [2] were 8.4 µg/mL (≈ 13.7 µM) and 6.9 µg/mL (≈ 11.3 µM), respectively.

On to `CCCCCCCC[C@H]1CC[C@H]2[C@@H]3CCC4=Cc5c(cc6c(=O)n(-c7ccccc7)c(=O)nc-6n5-c5cccc(C)c5)C[C@]4(C)[C@H]3CC[C@]12C`, for which the IC50 in assay [1] amounted to 8 µg/mL (≈ 11.9 µM); in assay [2], 5.4 µg/mL (≈ 8.06 µM).

`CCCCCCCC[C@H]1CC[C@H]2[C@@H]3CCC4=Cc5c(cc6c(=O)n(-c7ccccc7)c(=O)nc-6n5-c5ccc(Cl)cc5)C[C@]4(C)[C@H]3CC[C@]12C`: the half-maximal inhibitory concentration (IC50) was 9.3 µg/mL (≈ 13.5 µM) in assay [1] and 9 µg/mL (≈ 13 µM) in assay [2].

For the compound `CCCCCCCC[C@H]1CC[C@H]2[C@@H]3CCC4=Cc5c(cc6c(=O)[nH]c(=O)nc-6n5CCCC)C[C@]4(C)[C@H]3CC[C@]12C`, the IC50 was found to be 5.7 µg/mL (≈ 10.2 µM) in assay [1] and 4.3 µg/mL (≈ 7.68 µM) in assay [2].

In the case of `CCCCCCCC[C@H]1CC[C@H]2[C@@H]3CCC4=Cc5c(cc6c(=O)[nH]c(=O)nc-6n5-c5ccc(Cl)cc5)C[C@]4(C)[C@H]3CC[C@]12C`, the half-inhibitory concentration (IC50) was 1.8 µg/mL (≈ 2.93 µM) in assay [1] and 2.7 µg/mL (≈ 4.4 µM) in assay [2].

For `CCCCCCCC[C@H]1CC[C@H]2[C@@H]3CCC4=Cc5c(cc6c(=O)n(-c7ccccc7)c(=O)nc-6n5-c5ccc(F)cc5)C[C@]4(C)[C@H]3CC[C@]12C`, the half-maximal inhibitory concentration (IC50) in assay [1] is 8.4 µg/mL (≈ 12.5 µM); in assay [2], 5.5 µg/mL (≈ 8.16 µM).

`CCCCCCCC[C@H]1CC[C@H]2[C@@H]3CCC4=Cc5c(cc6c(=O)n(C)c(=O)nc-6n5CC)C[C@]4(C)[C@H]3CC[C@]12C`: the half-inhibitory concentration (IC50) in assay [1] and in assay [2] was above 100 µg/mL throughout.

As to `CCCCCCCC[C@H]1CC[C@H]2[C@@H]3CCC4=Cc5c(cc6c(=O)n(C)c(=O)nc-6n5C)C[C@]4(C)[C@H]3CC[C@]12C`, the concentration for half-maximal inhibition (IC50) stood at 40.9 µg/mL (≈ 76.9 µM) in assay [1] and 36.8 µg/mL (≈ 69.2 µM) in assay [2].

As to `CCCCCCCC[C@H]1CC[C@H]2[C@@H]3CCC4=Cc5c(cc6c(=O)[nH]c(=O)nc-6n5-c5ccc(OC)cc5)C[C@]4(C)[C@H]3CC[C@]12C`, the IC50 stood at 1.7 µg/mL (≈ 2.79 µM) in assay [1] and 2.1 µg/mL (≈ 3.44 µM) in assay [2].
